Measurements: ChEMBL document CHEMBL4342474, “Scaffold and Parasite Hopping: Discovery of New Protozoal Proliferation Inhibitors” (ACS Med Chem Lett, 2020)
≈ marks a conversion by molar mass, not a printed value.

Key:
Plasmodium falciparum [1] = experiment: Antiplasmodial activity against chloroquine-sensitive mefloquine resistant Plasmodium falciparum D6; type: functional, organism-based
Trypanosoma cruzi [2] = experiment: Antitrypanosomal activity against Trypanosoma cruzi Tulahuen amastigotes measured after 96 hrs by beta-galactosidase reporter gene assay; type: functional, organism-based
Leishmania major [3] = experiment: Antileishmanial activity against Leishmania major; type: functional, organism-based
Trypanosoma cruzi [4] = experiment: Antitrypanosomal activity against Trypanosoma cruzi Tulahuen trypomastigotes infected in mouse NIH/3T3 cells measured after 96 hrs by beta-galactosidase reporter gene assay; type: functional, organism-based; details: NIH3T3, 96 h
Leishmania major [5] = experiment: Antileishmanial activity against Leishmania major amastigotes infected in mouse RAW 264.7 cells by luciferase reporter gene assay; type: functional, organism-based; details: RAW264.7
Plasmodium falciparum [6] = experiment: Antiplasmodial activity against Plasmodium falciparum D6 measured after 72 hrs by SYBR green fluorescence dye based microplate reader analysis; type: functional, organism-based; details: D6, 72 h
[7] = Aqueous solubility of compound at pH 7.4; type: physicochemical
[8] = Intrinsic clearance in rat hepatocytes assessed as per million cells; type: ADME, cell-based, Hepatocyte; details: read-out: CLH
Plasmodium falciparum [9] = experiment: Antiplasmodial activity against Plasmodium falciparum W2 after 72 hrs by SYBR Green fluorescence assay; type: functional, organism-based; details: W2, 72 h
Plasmodium falciparum [10] = experiment: Antiplasmodial activity against Plasmodium falciparum TM91C235 after 72 hrs by SYBR Green fluorescence assay; type: functional, organism-based; details: TM91C235, 72 h
Trypanosoma cruzi [11] = experiment: Antitrypanosomal activity against Trypanosoma cruzi CaI-72 trypomastigotes infected in mouse C2C12 cells measured after 72 hrs by DAPI staining based assay; type: functional, organism-based; details: CaI-72, C2C12, 72 h
[12] = Selectivity index, ratio of TC50 for mouse C2C12 cells to EC50 for antitrypanosomal activity against Trypanosoma cruzi CaI-72 trypomastigotes infected in mouse C2C12 cells; type: toxicity, cell-based
[13] = Selectivity index, ratio of TC50 for human HepG2 cells to EC50 for antiplasmodial activity against Plasmodium falciparum D6; type: toxicity
[14] = Protein binding in human plasma; type: ADME, cell-free; details: read-out: PPB (converted)
[15] = Intrinsic clearance in human liver microsomes assessed as per mg protein; type: ADME, Microsome; details: liver microsomes, read-out: CLH
[16] = Cytotoxicity against mouse C2C12 cells assessed as reduction in cell viability; type: cell-based; details: read-out: TC50 (the source's name)

EC50 (Trypanosoma cruzi [11]) [nM]	solubility ([7]; aqueous solution, read-out: solubility) [µM]	fraction unbound [14]	microsomal CLint [15] [µL/min/mg]	SMILES	EC50 (Plasmodium falciparum [1]) [nM]	EC50 (Trypanosoma cruzi [2]) [nM]	EC50 (Leishmania major [3]) [nM]	EC50 (Trypanosoma cruzi [4]) [nM]	EC50 (Leishmania major [5]) [nM]	EC50 (Plasmodium falciparum [6]) [nM]	solubility ([7]; buffer) [µM]	hepatocyte CLint [8] [µL/min/1e6 cells]	EC50 (Plasmodium falciparum [9]) [nM]	EC50 (Plasmodium falciparum [10]) [nM]	selectivity ratio [12]	selectivity ratio [13]	CC50 [16] [nM]
–	–	–	–	CS(=O)(=O)CCNCc1ccc(-c2ccc3ncnc(Nc4ccc(OCc5cccc(F)c5)c(Cl)c4)c3c2)o1 [LAPATINIB]	530	1500	> 15000	–	–	–	–	–	–	–	–	–	–
–	–	–	–	CN1CCN(c2ncc(-c3ccc4c(Nc5cnccn5)ccnc4c3)cn2)CC1	–	6000	> 15000	6000	> 15000	26	[…]	127	62	37	–	–	–
330	137 (≈ 64.1 µg/mL)	0.28	43	O=S(=O)(c1ccc(-c2ccc3nccc(N[C@@H]4CCCC[C@H]4O)c3c2)cc1)N1CCOCC1	–	–	–	–	> 22000	400	–	30	–	–	> 30	> 80	> 10000
